According to patent publication US8507756B2, “Plant protection” (Plant Bioscience Limited, priority 2007, dated 2013):

What was measured:
Myzus persicae = test: JA or MeJA seed treatment, tomato plants challenged with aphids; type: in vivo; conditions: tomato cv. Carousel, seed treatment 3.0 mM JA, challenged 10 weeks after sowing
Method: Tomato, pepper, maize and wheat seeds were treated with 3 mM JA or 1.5 mM JA solutions or with 3 mM methyl jasmonate (MeJA) or with deionised water containing 42.8 mM ethanol (control) by full submersion of up to 40 seeds in a Petri dish of solution wrapped in foil for a period of 24 hours at 4° C. in a fridge. A temperature of 4° C. was used both to prevent degradation of the jasmonic acid solutions and to prevent germination of the seeds. The seeds were then removed from the treatment solution and washed in 1 liter of deionised water for 5 minutes to remove the JA or MeJA coating the outside of the seeds. Tomato seeds were sown in rockwool blocks and grown on peat-based compost in glass houses at 12° C.-28° C. under artificial light on a 16 hour light and 8 hour dark cycle for 48, 56 or 70 days. Tomato plants were then challenged with Tetranychus urticae (two-spotted spider mite) which were allowed to feed for 9 days, Manduca sexta (tobacco hornworm) caterpillars which were allowed to feed for 4 days or Myzus persicae (aphid), which were allowed to feed for 10 or 12 days. In each case these organisms were restricted to the plant on which they had originally been placed. Pepper plants were challenged with Myzus persicae (aphid), which were allowed to feed for 2 weeks. Maize and wheat plants were challenged with Spodoptera […] caterpillars which were allowed to feed for 2 days (maize) or 3 days (wheat). The effect of Myzus persicae on plants was determined by counting the aphid population on each plant under a dissecting microscope at ×10 magnification. Seeds of a UK commercial F1 hybrid tomato variety (cv. Carousel) were treated with 3.0 mM jasmonic acid (JA) and 42.8 mM ethanol in deionised H2O for a period of 24 hours at 4° C. in the dark. […] Aphids were allowed to feed on the plants for twelve days and the aphid population was measured at intervals over this period. […]

Spodoptera exempta = test: JA seed treatment, wheat plants challenged with Spodoptera exempta caterpillars; type: in vivo; conditions: wheat cv. Einstein; seed treatment 1.5 mM JA; challenged 7 weeks after seed treatment; 3 days feeding; p<0.01
Method: Tomato, pepper, maize and wheat seeds were treated with 3 mM JA or 1.5 mM JA solutions or with 3 mM methyl jasmonate (MeJA) or with deionised water containing 42.8 mM ethanol (control) by full submersion of up to 40 seeds in a Petri dish of solution wrapped in foil for a period of 24 hours at 4° C. in a fridge. A temperature of 4° C. was used both to prevent degradation of the jasmonic acid solutions and to prevent germination of the seeds.
Wheat and maize seeds were sown in peat-based compost and grown in unheated glass houses with supplementary lighting. (600 W SON-T lamps, for 16 hours per day) in the autumn.
Tomato plants were then challenged with Tetranychus urticae (two-spotted spider mite) which were allowed to feed for 9 days, Manduca sexta (tobacco hornworm) caterpillars which were allowed to feed for 4 days or Myzus persicae (aphid), which were allowed to feed for 10 or 12 days. […]
The effect of Manduca sexta or Spodoptera exempta on plants was determined by measurement of the leaf area eaten, measured using a leaf area meter.
Seeds of the commercial wheat variety (cv. Einstein) were treated with 1.5 mM jasmonic acid (JA), and plants grown in the glasshouse (as described under Example 1). […] Caterpillars were allowed to feed on the plants for 3 days and the area of grazed leaves was then measured. […]

pepper = test: Long term growth and yield study after JA seed treatment, pepper; type: in vivo; conditions: seed treatment 1.5 or 3.0 mM JA, weekly harvests
Text: Data are means of 8 replicate plants+/−standard error of the mean, and the line is a fitted growth response.

[1] = Dissolution of JA in water when preparing the solution; type: physicochemical; conditions: 250 mg JA; ethanol needed first
Method: 6. 1 ml of ethanol was added to the vial of JA using a 1000 μl Gilson pipette, the lid of the vial replaced and the vial shaken to dissolve the JA.

Vegetative or reproductive growth, or commercial yield (pepper): no significant effect
Solubility in water [1]: will not dissolve in water directly
SMILES: CC/C=C\C[C@H]1C(=O)CC[C@@H]1CC(=O)O [JA, jasmonic acid]
Aphid population compared with control plants (Myzus persicae; 12 days feeding): significant (p<0.05) reduction
Aphid population compared with control plants, treated seed stored before sowing (Myzus persicae; seed dried and stored at 4 C for two months before sowing, 10 days feeding): significant (p<0.05) reduction
Leaf area consumed by caterpillars, lower than controls (Spodoptera exempta): 60%
